Data on two molecules can be found in ChEMBL document CHEMBL4673283, “Penisarins A and B, Sesquiterpene Coumarins Isolated from an Endophytic Penicillium sp” (J Nat Prod, 2020).

Holding throughout (type): functional, cell-based
The subject of one assay is SW480. Briefly: Cytotoxicity against human SW480 cells assessed as reduction in cell viability after 48 hrs by MTS assay. The settings on record: SW480, 48 h. (In general: Tetrazolium assays rely on reduction of a dye to a coloured formazan, in cell work by metabolically active cells.)
The next assay has as its system RAW264.7. Briefly: Inhibition of LPS-induced NO production in mouse RAW264.7 cells at 50 uM incubated for 18 hrs by Griess reagent based assay.
Another assay relates to HL-60. Briefly: Cytotoxicity against human HL-60 cells assessed as reduction in cell viability after 48 hrs by MTS assay. The following applies: HL-60, 48 h.
For the next assay, the system named is A549. Briefly: Cytotoxicity against human A549 cells assessed as reduction in cell viability after 48 hrs by MTS assay. The following applies: A549, 48 h.
A further assay relates to SMMC-7721. Briefly: Cytotoxicity against human SMMC-7721 cells assessed as reduction in cell viability after 48 hrs by MTS assay. The following applies: SMMC-7721, 48 h.
The test system of the next assay is MCF7. Briefly: Cytotoxicity against human MCF7 cells assessed as reduction in cell viability after 48 hrs by MTS assay. The settings on record: MCF7, 48 h.

Each structure is given as a SMILES string. pIC50: −log10 of the molar value. Calls of active or inactive are those of the source. The rule behind the calls is not given here.

For `COc1cc(C)c2c3c(c(=O)oc2c1)C[C@@H]([C@@]1(C)CC[C@H]2C(C)(C)[C@@H](O)CC[C@@]21C)O3`, the pIC50 was 4.57 in the assay on SW480; 5.44 with HL-60; 4.82 with A549; 5.43 with SMMC-7721; 4.89 with MCF7. Besides, the inhibition result in the assay with RAW264.7 was “inactive”.
Turning to `COc1cc(C)c2c3c(c(=O)oc2c1)C[C@@H]([C@@]1(C)CC[C@H]2C(C)(C)C(=O)CC[C@@]21C)O3`, the pIC50 in the assay with SW480, in the assay with HL-60, in the assay with A549, in the assay on SMMC-7721 and in the assay with MCF7 was below 4.40 each time. Moreover, the inhibition entry in the assay with RAW264.7 was “inactive”.

The pIC50 is the negative decadic logarithm of the IC50, by convention in mol/L.
